US10945971B2, “Sphingosine kinase type 1 inhibitors and uses thereof” (Enzo Therapeutics, Inc., priority 2008, dated 2021)

What was measured:
LN229 cells [1] = assay: Colony formation (clonogenic) assay, LN229 cells; type: cell-based, human
Description: Cells were plated at a density of 1000 cells/well in a 12-well plate in DMEM containing 5% serum. After 8 h, SK1-I was added and 2 h later, the media was changed. After 10 days, cells were fixed in 4% paraformaldehyde and stained with crystal violet (0.05%). Colonies larger then 0.5 mm in diameter were counted.

U373 cells [2] = assay: PMA-stimulated F-actin reorganization and lamellipodia formation (phalloidin staining, confocal); type: cell-based, human
Description: (§1) Cells were grown on 3-aminopropyl-triethoxysilane-treated 15 mm glass cover slips in 24 well plates. Following treatments, cells were washed with PBS, fixed with 3% paraformaldehyde for 10 min at room temperature, and blocked in TBST buffer containing 1% BSA. After washing, cells were incubated in the same buffer containing Alexa-conjugated phalloidin for 30 min, followed by 15 min incubation in 10 μg/ml of Hoechst 33342. For TUNEL assays, fixed cells were permeabilized with 0.5% TX-100 for 30 min, washed and incubated in TdT buffer supplemented with 250 μM CoCl2, 20 units TdT (NEB, Ipswich, Mass.) and 1 nM fluorescein-12-dUTP (Roche) for 1 h at 37° C. Coverslips were washed with TBST, rinsed in water, air dried and mounted on glass slides with Cytoseal 60 polymer (Richard-Allan Scientific, Kalamazoo, Mich.). Images were collected on an LSM 510 laser confocal microscope (Zeiss, Thornwood, N.Y.) with a 100× oil immersion objective.

GBM6 = assay: In vitro invasion, GBM6 cells; type: cell-based, human
Description: (§2) Boyden chamber invasion assays were carried out essentially as described (Shida et al. Cancer Res 68:6569-6577, 2008).

[3] = Metabolism of SK1-I in cells by LC-ESI-MS/MS; type: in vitro ADME
From the text: Lipids were extracted and phosphorylated and unphosphorylated sphingoid bases, individual ceramide acyl chain species, as well as SK1-I and its metabolites were quantified by liquid chromatography, electrospray ionization-tandem mass spectrometry (LC-ESI-MS/MS) as described previously (Merrill et al. Methods 36:207-224, 2005).

LN229 xenograft tumors = assay: Subcutaneous LN229 xenograft tumors in nu/nu mice; type: in vivo; conditions: 10 mg/kg i.p. every other day
Description: Adult male NCI nu/nu mice were purchased from NCI (Frederick, Md.). All animal studies were conducted in the Animal Research Core Facility at VCU School of Medicine in accordance with the institutional guidelines. LN229 cells (1×10^6) were injected in the flanks (4 sites per mouse). Palpable tumors appeared in about one week. Five days later, when tumors reached 3-4 mm in diameter, mice were randomly separated into 2 groups and injected i.p. with saline or SK1-I (10 mg/kg) every other day. Tumor measurements were made with calipers, and tumor volume was calculated using the formula: (π×[length in millimeters]×[width in millimeters]2)/6. At the end of the experiment, the animals were euthanized and the tumors removed, fixed in formalin and embedded in paraffin, or frozen in liquid nitrogen.
Paraffin sections were dewaxed, rehydrated, incubated with proteinase K before permeabilization, and then stained with hematoxylin-eosin. Frozen sections were dried, fixed in formalin, and stained with antibodies against mouse CD-31 (BD Pharmingen, San Jose, Calif.), or rabbit antibodies against phospho-Akt (Ser473) (Cell Signaling) followed by immunohistochemistry with Alexa-488-conjugated species-specific secondary antibodies. Cryosections were air dried, permeabilized with 0.5% Triton X-100, and stained with a fluorescein TUNEL labeling kit (Roche Applied Sciences, Indianapolis, Ind.) followed by counterstaining with Hoechst. Sections were also stained with goat anti-human VEGF affinity-purified antibody (R&D), visualized with anti-goat horseradish peroxidase-diaminobenzidene staining kit (R&D) and counterstained with hematoxylin.

LN229 cells [4] = assay: Boyden chamber chemotaxis, LN229 cells; type: cell-based, human
Description: as §2

[5] = tested on: blasts obtained from patients with AML; conditions: U.S. Ser. No. 12/387,228; cited from earlier work
ERK1/2 = assay: Western blotting of pERK1/2, GBM6 cells; type: cell-based, human
Description: (§3) Cells were scraped in buffer containing 20 mM Tris-HCl, pH 7.5, 50 mM NaCl, 50 mM NaF, 30 mM Na4P2O7, 20 mM 2-glycerophosphate, 1 mM Na3VO4, 5 mM EDTA, 2 mM EGTA, 0.5% SDS and protease inhibitor cocktail (1:200 dilution) and probe-sonicated. Equal amounts of protein determined with bicinchoninic acid (Pierce, Rockford, Ill.), were resolved by SDS-PAGE and transferred to nitrocellulose membranes. Blots were blocked with 5% non-fat dry milk in Tris-buffered saline containing 0.1% […] (TBST) for 1 h at room temperature, and then incubated with primary antibodies (1:3,000 in 1% BSA) overnight, followed by the appropriate HRP-conjugated secondary antibodies (1:40,000 in 1% BSA). Immunocomplexes were visualized by enhanced chemiluminescence (Pierce).

U87 cells = assay: Proliferation of U87 glioblastoma cells; type: cell-based, human
Description: (§4) Cells were plated at 10,000 cells/well in 48-well plates and allowed to attach for 24 h. Cell proliferation was measured at the indicated times with WST-1 and absorbance was measured in a plate reader at 450 nm with background subtraction at 630 nm. Cell death was detected by trypan blue exclusion assays in which the percent of blue dye incorporating cells were determined using a light microscope and a hemacytometer as described (Yacoub et al. Mol Cancer Ther 7:314-329, 2008). Apoptotic cell death was measured by staining cell nuclei with the Hoechst dye bisbenzimide and apoptotic cells were identified by condensed, fragmented nuclear regions as described previously (Sankala et al. Cancer Res 67:10466-10474, 2007). A minimum of 300 cells was scored.

Akt = assay: Western blotting of Akt phosphorylation, LN229 cells; type: cell-based, human; conditions: LN229, serum, LPA or EGF stimulated, 20 minutes treatment
Description: as §3

LN229 cells [6] = assay: In vitro invasion into Matrigel, LN229 cells; type: cell-based, human
Description: as §2

U373 cells [7] = assay: Boyden chamber chemotaxis, U373 cells; type: cell-based, human
Description: as §2

[8] = U.S. Ser. No. 12/387,228; cited from earlier work
LN229 cells [9] = assay: Apoptosis of LN229 cells (PARP cleavage, nuclear condensation, TUNEL); type: cell-based, human
Description: as §1, with “Coverslips were washed with TBST, rinsed in water, air dried and mounted on glass slides with Cytoseal 60 polymer (Richard-Allan Scientific, Kalamazoo, Mich.). Images were collected on an LSM 510 laser confocal microscope (Zeiss, Thornwood, N.Y.) with a 100× oil immersion objective.” left out
as §4, with “A minimum of 300 cells was scored.” left out

## CCCCCc1ccc(/C=C/[C@H](O)[C@@H](CO)NC)cc1 [SK1-I, (2R,3S,4E)-N-methyl-5-(4′-pentylphenyl)-2-aminopent-4-ene-1,3-diol]
LN229 cells [1]
  long-term survival in clonogenic assays: markedly suppressed
U373 cells [2]
  PMA-stimulated F-actin reorganization at the leading edge and formation of lamellipodia: dramatically reduced
GBM6
  serum- and EGF-induced invasion: suppressed
[3]; after 24 h
  other metabolites: no other metabolites were detected
[3]; in contrast to FTY720
  phosphorylation of the compound: not readily phosphorylated
LN229 xenograft tumors
  TUNEL positive apoptotic tumor cells: increased numbers
  VEGF expression in tumors: greatly reduced
  blood vessel density (CD31 staining): reductions
  phosphorylated Akt immunostaining in tumors: markedly decreased
  vascularization in tumors (hematoxilin and eosin): decreased vascularization
LN229 xenograft tumors; after 43 days, vs vehicle
  reduction of tumor weight: ~4 fold
LN229 xenograft tumors; vs control, single factor ANOVA
  tumor volume: significantly smaller tumors
LN229 cells [4]
  chemotaxis toward lysophosphatidic acid (LPA): drastically inhibited
  chemotaxis toward serum and EGF: significantly inhibited
[5]
  apoptosis: markedly induced apoptosis
ERK1/2
  pERK1/2 levels: without affecting
U87 cells
  proliferation: suppress proliferation
Akt
  phosphorylation of Akt at Thr308 and Ser473: markedly suppressed
LN229 cells [6]
  LPA-, serum- and EGF-stimulated in vitro invasion of Matrigel: greatly attenuated
U373 cells [7]
  chemotaxis toward serum or EGF: reduced
[8]
  water solubility: water-soluble
LN229 cells [9]
  apoptosis (PARP cleavage, fragmented and condensed nuclei, TUNEL): induced apoptosis
